Experiments:
FLT3(D835Y) = biological target: T1, FLT3(D835Y) (Homo sapiens, UniProt P36888, D835Y); assay type: binding
T1 sequence (P36888 27-993 D835Y): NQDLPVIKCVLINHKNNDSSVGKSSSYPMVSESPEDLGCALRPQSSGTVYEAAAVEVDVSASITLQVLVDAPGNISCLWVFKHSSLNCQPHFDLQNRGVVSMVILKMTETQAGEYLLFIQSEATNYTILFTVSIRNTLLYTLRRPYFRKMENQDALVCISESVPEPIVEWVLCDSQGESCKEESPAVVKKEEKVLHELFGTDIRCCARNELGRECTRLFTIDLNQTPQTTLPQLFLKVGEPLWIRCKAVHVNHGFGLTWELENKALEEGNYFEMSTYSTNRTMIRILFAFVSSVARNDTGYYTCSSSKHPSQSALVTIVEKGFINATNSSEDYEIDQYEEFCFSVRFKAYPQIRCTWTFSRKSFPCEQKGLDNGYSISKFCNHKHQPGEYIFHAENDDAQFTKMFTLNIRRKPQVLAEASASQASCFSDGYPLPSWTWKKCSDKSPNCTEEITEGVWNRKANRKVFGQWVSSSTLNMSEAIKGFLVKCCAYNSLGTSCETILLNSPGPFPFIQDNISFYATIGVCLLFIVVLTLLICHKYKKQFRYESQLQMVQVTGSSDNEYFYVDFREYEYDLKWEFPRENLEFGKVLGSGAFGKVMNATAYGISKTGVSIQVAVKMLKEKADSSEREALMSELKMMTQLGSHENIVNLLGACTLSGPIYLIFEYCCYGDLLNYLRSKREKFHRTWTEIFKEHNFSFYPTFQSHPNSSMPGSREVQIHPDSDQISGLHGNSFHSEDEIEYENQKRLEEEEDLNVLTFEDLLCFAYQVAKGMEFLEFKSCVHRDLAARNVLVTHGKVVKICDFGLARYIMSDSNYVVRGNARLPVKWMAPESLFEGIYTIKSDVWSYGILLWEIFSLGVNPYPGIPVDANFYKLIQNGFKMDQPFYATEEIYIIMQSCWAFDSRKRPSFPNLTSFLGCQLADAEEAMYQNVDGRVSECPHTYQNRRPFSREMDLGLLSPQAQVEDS

FLT3(ITD) = biological target: T2, FLT3(ITD) (Homo sapiens, UniProt P36888); assay type: binding
T2 construct: fused on or other part: DNA tag for the qPCR read-out (the KINOMEscan format)
T2 sequence (P36888 1-993): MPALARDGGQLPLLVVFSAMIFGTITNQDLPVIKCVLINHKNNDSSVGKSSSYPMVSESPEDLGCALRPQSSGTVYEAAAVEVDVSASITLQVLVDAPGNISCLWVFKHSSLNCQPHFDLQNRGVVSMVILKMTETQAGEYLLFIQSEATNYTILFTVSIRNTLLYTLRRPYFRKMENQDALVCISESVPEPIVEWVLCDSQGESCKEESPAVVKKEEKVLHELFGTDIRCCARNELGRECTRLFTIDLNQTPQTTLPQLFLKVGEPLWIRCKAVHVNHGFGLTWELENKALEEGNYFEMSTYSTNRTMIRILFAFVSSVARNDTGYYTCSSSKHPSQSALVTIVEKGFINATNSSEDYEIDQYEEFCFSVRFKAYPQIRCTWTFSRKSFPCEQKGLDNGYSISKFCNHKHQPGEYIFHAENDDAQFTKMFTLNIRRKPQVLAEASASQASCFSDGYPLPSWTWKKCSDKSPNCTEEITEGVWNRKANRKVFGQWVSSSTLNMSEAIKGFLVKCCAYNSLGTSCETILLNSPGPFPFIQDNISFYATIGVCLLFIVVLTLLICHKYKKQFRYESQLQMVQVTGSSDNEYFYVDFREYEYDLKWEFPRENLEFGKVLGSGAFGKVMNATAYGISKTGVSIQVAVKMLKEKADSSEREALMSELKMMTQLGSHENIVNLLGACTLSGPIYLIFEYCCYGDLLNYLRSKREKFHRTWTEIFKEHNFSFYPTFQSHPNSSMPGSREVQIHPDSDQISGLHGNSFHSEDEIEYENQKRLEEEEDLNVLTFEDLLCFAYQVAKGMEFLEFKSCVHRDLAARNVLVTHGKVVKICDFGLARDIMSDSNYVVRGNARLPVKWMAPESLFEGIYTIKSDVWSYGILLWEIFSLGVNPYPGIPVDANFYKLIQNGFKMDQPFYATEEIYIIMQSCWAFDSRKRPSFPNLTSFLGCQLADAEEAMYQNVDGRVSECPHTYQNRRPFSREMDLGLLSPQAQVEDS

CCc1nc(C(N)=O)c(Nc2ccc(N3CCC4(CCN(C)CC4)CC3)c(C)c2)nc1NC1CCOCC1.O=C(O)C(F)(F)F
Kd (FLT3(D835Y)): 1.4 nM | Kd (FLT3(ITD)): 3.6 nM

From patent US20230141887A1, “CRYSTAL FORM OF DIAZASPIROPYRAN COMPOUND” (MEDSHINE DISCOVERY INC., priority 2020, published 2023)
